Laboratory results from the NIST ThermoML archive (doi:10.1016/j.jct.2016.06.004).
± gives the expanded uncertainty stated by the source.

Columns and labels:
[1] = xn = mol fraction of the nth substance listed; details: Ring tensiometer
[2] = Ring tensiometer

CO [methanol] + C[S+](C)[O-]
[1], x1 = 1
Details	surface tension liquid-gas [mN/m]
298.15 K	22.24 ± 0.44
308.15 K	21.41 ± 0.42
318.15 K	20.53 ± 0.41
328.15 K	19.54 ± 0.4

CO [methanol]
[2]
Details	surface tension liquid-gas [mN/m]
298.15 K	22.24 ± 0.44
308.15 K	21.41 ± 0.42
318.15 K	20.53 ± 0.41
328.15 K	19.54 ± 0.4

C[S+](C)[O-] [dimethyl sulfoxide] + CCO
surface tension liquid-gas [mN/m], [1]
Details	298.15 K	308.15 K	318.15 K	328.15 K
x2 = 0	42.43 ± 0.74	41.3 ± 0.73	40.17 ± 0.71	39.08 ± 0.69
x2 = 0.087	39.25 ± 0.7	38.32 ± 0.68	37.35 ± 0.67	36.37 ± 0.65
x2 = 0.174	36.69 ± 0.66	35.75 ± 0.64	34.88 ± 0.63	33.99 ± 0.62
x2 = 0.261	34.4 ± 0.62	33.6 ± 0.61	32.69 ± 0.6	31.87 ± 0.58
x2 = 0.348	32.29 ± 0.59	31.5 ± 0.58	30.73 ± 0.57	29.99 ± 0.56
x2 = 0.435	30.48 ± 0.56	29.71 ± 0.55	28.95 ± 0.54	28.22 ± 0.53
x2 = 0.522	28.84 ± 0.54	28.08 ± 0.53	27.33 ± 0.51	26.61 ± 0.5
x2 = 0.609	27.34 ± 0.51	26.58 ± 0.5	25.83 ± 0.49	25.21 ± 0.48
x2 = 0.696	26.04 ± 0.49	25.22 ± 0.48	24.44 ± 0.47	23.64 ± 0.46
x2 = 0.783	24.63 ± 0.47	23.91 ± 0.46	23.14 ± 0.45	22.36 ± 0.44
x2 = 0.87	23.4 ± 0.45	22.7 ± 0.44	21.91 ± 0.43	21.07 ± 0.42

C[S+](C)[O-] [dimethyl sulfoxide] + CC(C)O
surface tension liquid-gas [mN/m], [1]
Details	298.15 K	308.15 K	318.15 K	328.15 K
x2 = 0	42.43 ± 0.74	41.3 ± 0.73	40.17 ± 0.71	39.08 ± 0.69
x2 = 0.044	39.17 ± 0.71	38.58 ± 0.7	37.9 ± 0.69	36.91 ± 0.67
x2 = 0.085	36.42 ± 0.66	35.88 ± 0.65	34.99 ± 0.64	34.12 ± 0.63
x2 = 0.157	33.83 ± 0.62	32.83 ± 0.6	32.05 ± 0.59	31.15 ± 0.58
x2 = 0.245	30.89 ± 0.57	30.21 ± 0.56	29.55 ± 0.55	28.39 ± 0.54
x2 = 0.338	28.56 ± 0.54	27.7 ± 0.53	27.02 ± 0.52	26 ± 0.5
x2 = 0.441	26.67 ± 0.51	25.88 ± 0.5	25.19 ± 0.49	24.1 ± 0.47
x2 = 0.537	25.15 ± 0.49	24.46 ± 0.48	23.87 ± 0.47	22.79 ± 0.45
x2 = 0.619	24.19 ± 0.47	23.39 ± 0.46	22.81 ± 0.45	21.74 ± 0.44
x2 = 0.676	23.19 ± 0.46	22.84 ± 0.45	22.06 ± 0.44	21.08 ± 0.43
x2 = 0.719	23.03 ± 0.46	22.48 ± 0.45	21.67 ± 0.43	20.72 ± 0.42
x2 = 0.751	22.84 ± 0.45	22.21 ± 0.44	21.43 ± 0.43	20.45 ± 0.42
x2 = 0.86	22 ± 0.44	21.21 ± 0.43	20.51 ± 0.42	19.59 ± 0.4

C[S+](C)[O-] [dimethyl sulfoxide]
[2]
Details	surface tension liquid-gas [mN/m]
298.15 K	42.43 ± 0.74
308.15 K	41.3 ± 0.73
318.15 K	40.17 ± 0.71
328.15 K	39.08 ± 0.69

CCO [ethanol] + C[S+](C)[O-]
[1], x1 = 1
Details	surface tension liquid-gas [mN/m]
298.15 K	21.66 ± 0.43
308.15 K	21.01 ± 0.42
318.15 K	20.19 ± 0.4
328.15 K	19.23 ± 0.39

CC(C)O [propan-2-ol]
[2]
Details	surface tension liquid-gas [mN/m]
298.15 K	21.15 ± 0.43
308.15 K	20.29 ± 0.42
318.15 K	19.53 ± 0.4
328.15 K	18.51 ± 0.39

CCO [ethanol]
[2]
Details	surface tension liquid-gas [mN/m]
298.15 K	21.66 ± 0.43
308.15 K	21.01 ± 0.42
318.15 K	20.19 ± 0.4
328.15 K	19.23 ± 0.39

CC(C)O [propan-2-ol] + C[S+](C)[O-]
[1], x1 = 1
Details	surface tension liquid-gas [mN/m]
298.15 K	21.15 ± 0.43
308.15 K	20.29 ± 0.42
318.15 K	19.53 ± 0.4
328.15 K	18.51 ± 0.39

O [water]
Details	surface tension liquid-gas [mN/m]
[2], 298.15 K	72.05 ± 1.2

C[S+](C)[O-] [dimethyl sulfoxide] + CO
surface tension liquid-gas [mN/m], [1]
Details	298.15 K	308.15 K	318.15 K	328.15 K
x2 = 0	42.43 ± 0.74	41.3 ± 0.73	40.17 ± 0.71	39.08 ± 0.69
x2 = 0.077	41.31 ± 0.73	40.2 ± 0.71	39.15 ± 0.69	38.06 ± 0.68
x2 = 0.154	40.03 ± 0.71	38.95 ± 0.69	37.91 ± 0.68	36.84 ± 0.66
x2 = 0.231	38.59 ± 0.69	37.54 ± 0.67	36.58 ± 0.66	35.55 ± 0.64
x2 = 0.308	37.1 ± 0.66	36.16 ± 0.65	35.2 ± 0.64	34.25 ± 0.62
x2 = 0.384	35.6 ± 0.64	34.69 ± 0.63	33.78 ± 0.61	32.84 ± 0.6
x2 = 0.462	34.07 ± 0.62	33.18 ± 0.6	32.31 ± 0.59	31.45 ± 0.58
x2 = 0.538	32.46 ± 0.59	31.62 ± 0.58	30.79 ± 0.57	29.96 ± 0.56
x2 = 0.615	30.84 ± 0.57	30.03 ± 0.56	29.22 ± 0.54	28.41 ± 0.53
x2 = 0.693	29.2 ± 0.54	28.38 ± 0.53	27.56 ± 0.52	26.79 ± 0.51
x2 = 0.769	27.5 ± 0.52	26.69 ± 0.51	25.84 ± 0.49	24.96 ± 0.48
x2 = 0.846	25.77 ± 0.49	24.89 ± 0.48	24.2 ± 0.47	23.31 ± 0.46
x2 = 0.9	24.56 ± 0.47	23.67 ± 0.46	22.88 ± 0.45	21.94 ± 0.43
